This note sets out measurements from ChEMBL document CHEMBL1201862, “PubChem BioAssay data set” (2004).

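Step 1: Grow cells in 96-well plates. Step 2: Expose to compound for 48 hours at 5 concentrations. Step 3: Interpolate endpoints linearly; if unreached, use highest concentration. GI50 marks 50% less growth.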 Active and inactive are the calls of the source. Rule as the data show it: active = GI50 up to about 1.1 µM and inactive = higher.

Common to all, as to experiment: NCI tumour cell line growth inhibition, 48 h
In assay [1] the test system is DMS-114.
The subject of assay [2] is DMS-273.
The test system of assay [3] is RXF 631.
In assay [4] the test system is HOP-18.
In assay [5] the test system is SNB-78.
The test system of assay [6] is XF498.
Assay [7] concerns DLD-1.
Assay [8] relates to LXFL 529.
For assay [9], the system named is M19-MEL.

On to `CCOc1ccc(OP2(=O)NC(=O)C=C(C)N2)cc1` (stereo unspecified), for which the GI50 in assay [1], in [2], in [3], in assay [4], in assay [5] and in assay [6] was > 100 µM (inactive) each time. Moreover, the GI50 in [7], in [8] and in assay [9] was > 100 µM (inactive) each time.
With `CCc1cccc(C(C)CC)c1NC(=O)CC1C(=O)Nc2ccccc2S1(=O)=O` (stereo unspecified), the GI50 was 13.5 µM (inactive) in [1]; 13.6 µM (inactive) in [2]; 14.2 µM (inactive) in assay [5]; > 100 µM (inactive) in assay [6]; 13.6 µM (inactive) in [7]; 11.2 µM (inactive) in [8]. For the same molecule, the GI50 in [9] is 26.9 µM (inactive).
On to `CCOc1nc(OCC)nc(-c2cccn2-c2ccccc2)n1`, for which the GI50 is 27.7 µM (inactive) in assay [1]; 30.1 µM (inactive) in [2]; 57.5 µM (inactive) in assay [3]; 32.3 µM (inactive) in assay [5]; 37.2 µM (inactive) in [9].
Take `O=C(c1ccncc1)n1nc(-c2ccccc2)c(/N=N/c2ccc([N+](=O)[O-])cc2)c1-c1ccccc1`: the GI50 in assay [1] was 24.4 µM (inactive); in assay [2], > 100 µM (inactive); in assay [5], 14.8 µM (inactive); in assay [6] it was 57.8 µM (inactive); in [7], > 100 µM (inactive); in assay [8], 13.1 µM (inactive). The GI50 in assay [9] was > 100 µM (inactive).
For `COc1ccc2c([nH]c3cc(O)c(C)cc32)c1C=O`, the GI50 in assay [1], in [2], in assay [5], in assay [6], in [7] and in assay [8] was > 25 µM (inactive) throughout. The GI50 in assay [9] was > 25 µM (inactive).
On to `CC1C=CC(C(N)C(=O)O)O1` (stereo unspecified), for which the GI50 in [1], in assay [2], in assay [5], in assay [6], in [7] and in assay [8] was > 100 µM (inactive) throughout. Further, the GI50 in assay [9] was > 100 µM (inactive).
Take `C[Si](C)(C)/C=C/CN1C(=O)CCC1O` (stereo unspecified): the GI50 in [1], in assay [2], in [4], in assay [5], in assay [6] and in assay [7] was > 100 µM (inactive) throughout. In addition, the GI50 in assay [8] and in assay [9] was > 100 µM (inactive) throughout.
On to `Nn1c(S)nnc1N/N=C1/C(=O)Nc2c(Cl)cc(Cl)cc21`, for which the GI50 was > 100 µM (inactive) in [1]; > 100 µM (inactive) in [4]; > 100 µM (inactive) in assay [5]; > 100 µM (inactive) in assay [7]; 59.7 µM (inactive) in [8]; > 100 µM (inactive) in [9].
In the case of `Nc1ccc2nc(Nc3ccc(Cl)c(Cl)c3)cnc2c1`, the GI50 in assay [1] was 10 µM (inactive); in [2], 18.2 µM (inactive); in assay [5], 24.6 µM (inactive); in [7] it was 34.7 µM (inactive); in assay [9], 18.2 µM (inactive).
Take `O=c1[nH]c(=O)n(C2CC(O)C(CS)O2)cc1F` (stereo unspecified): the GI50 in assay [1] is > 100 µM (inactive); in assay [4] it was > 100 µM (inactive); in assay [5], > 100 µM (inactive); in assay [6] it was > 100 µM (inactive); in [7], > 100 µM (inactive); in [8], > 10 µM (inactive). In addition, the GI50 in assay [9] is 77.6 µM (inactive).
Turning to `CCOC(=O)C(CC(C)C)NC(=O)C(N)Cc1ccc(N(CCCl)CCCl)cc1` (stereo unspecified), the GI50 in [1] was 1.69 µM (inactive); in assay [2], 0.632 µM (active); in [4], 4.24 µM (inactive); in assay [6], 1.52 µM (inactive); in assay [7], 2.52 µM (inactive); in assay [8] it was 2.8 µM (inactive). Also, the GI50 in assay [9] was 1.65 µM (inactive).
As to `C=CCNC(=S)OCCCCCCCCCC`, the GI50 in [1] is 17 µM (inactive); in assay [2], 19.9 µM (inactive); in [4], 22.3 µM (inactive); in assay [5] it was 19.5 µM (inactive); in [6], 16 µM (inactive); in [7], 16.4 µM (inactive). The GI50 is 14.9 µM (inactive) in assay [8] and 17.6 µM (inactive) in assay [9].
With `CC(=O)OCC1OC(N=[N+]=[N-])C(OC(C)=O)C(OC(C)=O)C1OC1OC(COC(C)=O)C(OC(C)=O)C(OC(C)=O)C1OC(C)=O` (stereo unspecified), the GI50 in assay [1] is > 100 µM (inactive); in assay [2], > 100 µM (inactive); in assay [3], > 100 µM (inactive); in assay [5], 71.6 µM (inactive); in [6] it was > 100 µM (inactive); in assay [8], > 100 µM (inactive). In addition, in assay [9], the GI50 was > 100 µM (inactive).
For `CN1CCc2c1nc(-c1ccccc1)c1c2N(C)CC1`, the GI50 in assay [2] was 53.6 µM (inactive); in assay [4] it was 3.82 µM (inactive); in assay [5], > 100 µM (inactive); in assay [7] it was 45.3 µM (inactive); in assay [8] it was 52.2 µM (inactive); in [9] it was > 100 µM (inactive).
In the case of `O=C(CC1C(=O)Nc2ccccc2[S+]1[O-])Nc1cc(Cl)ccc1Cl` (stereo unspecified), the GI50 in [1], in assay [2], in assay [3], in assay [5], in [6] and in assay [7] was > 100 µM (inactive) each time. The GI50 in assay [8] and in [9] was > 100 µM (inactive) throughout.
With `FC(F)(F)c1cccc2ns[s+]c12`, the GI50 in assay [2] is > 100 µM (inactive); in assay [3], > 100 µM (inactive); in assay [4], > 100 µM (inactive); in assay [5] it was > 100 µM (inactive); in assay [6], > 100 µM (inactive); in assay [7], 35 µM (inactive). Also, the GI50 in assay [8] and in [9] was > 100 µM (inactive) throughout.
For `CCSc1nc(COC(=O)NC)c(COC(=O)NC)n1C`, the GI50 in [1] is 46.6 µM (inactive); in [2] it was > 94.4 µM (inactive); in [3], > 100 µM (inactive); in assay [4], > 100 µM (inactive); in [5], > 70.1 µM (inactive); in assay [7], > 92.3 µM (inactive). Further, the figures for the GI50 in assay [8] and in [9] were > 37.2 µM (inactive) and > 63.5 µM (inactive), respectively.
`CCCCCCCCCCCCCCCCCCCCCCC(=O)N[C@H]1CCc2cc(OC)c(OC)c(OC)c2-c2ccc(SC)c(=O)cc21`: the GI50 is 27.9 µM (inactive) in assay [2]; 14.1 µM (inactive) in assay [3]; 41.9 µM (inactive) in assay [5]; 20.8 µM (inactive) in [6]; 41.9 µM (inactive) in [8]; 50 µM (inactive) in [9].
